Square brackets hold non-standard residues; d marks the D form. Peptide text beside a SMILES is read from it. Nle = CCCC[C@H](N)C(=O)O
Test system: HSF1
Assay: HSF1 steady-state level and trimerization (Western blot, EGS cross-linking) in HepG2 cells
Type: cell-based, human
Conditions: ALLN 40 μg/ml, 2 hours
Method: HepG2 cells were treated with serum-free MEM containing 1.5% BSA for 2 hours at 37° C. without any additions (lane 1), at 37° C. but containing 40 μg/ml of ALLN in the medium (lane 2), at 37° C. in a medium containing both ALLN and 50 μg/ml of cycloheximide (lane 3), at 42° C. alone (lane 4), or at 42° C. plus cycloheximide in the medium (lane 5). Cell lysates were prepared as described under Experimental Details. The lysates were either directly run on the SDS-PAGE (A) to show the steady-state protein levels of HSF1 or subjected to cross-linking with ethylene glycol bis sucrinimidylsuccinate (EGS) before running the gel (B) to show the oligomeric forms of HSF1. The proteins were then transfered to a nitrocellulose membrane and immunoblotted with anti-human HSF1 antibody. Arrows on the right side indicates the monomeric, dimeric or trimeric forms of HSF1, respectively. This experiment was repeated three times with identical results.
Total RNA was prepared using the procedure of Chomczynski and Sacchi (Chomczynski, et al., 1987) and a commercially prepared reagent, TRISOLV™ (Biotecx Laboratories Inc., TX). Equal amounts of tRNA samples (10 μg) were size-fractionated on a 1% agarose-formaldehyde gel according to the methods described (Maniatis, et al., 1982) and transferred to a piece of QIAGEN plus nylon membrane. To determine loading and transfer efficiency, RNA was stained with ethidium bromide before and after transfer. The membrane was baked for 30 min. at 80° C. in vacuo (a vacuum) followed by UV cross-linking. It was then incubated for 4 hours at 65° C. in a prehybridization mixture containing 10% dextran sulfate, 1% SDS, 1M sodium chloride, 50 mM Tris-HCl (pH 7.5) and 100 μg/ml denatured salmon sperm DNA. Hybridization was carried out for 18 hours at 65° C. in the same buffer with a ^32P-labeled (1×10^6 cpm/ml) 40-mer oligonucleotide probe to the untranslated 5′ region of a human hsp70 gene (Oncogene Science). […] The membrane was then washed four times with 2×SSC, 0.1% SDS at room temperature, one time at 65° C. for 30 min., and one time at room temperature again for 5 min., and finally rinsed with 2×SSC at room temperature. This membrane was air dried and exposed to X-ray film at −80° C. for 48 hours. For measurement of the steady-state HSF1 protein levels, whole cell extracts were prepared by lysing the cells directly with 2×SDS-sample buffer (Maniatis, et al., 1982). For chemical cross-linking experiments, whole-cell extracts were prepared as described (Mosser, et al., 1988). Briefly, the cold PBS-washed cell pellets were quickly and repeatedly frozen in liquid nitrogen. […]

SMILES: CCCC[C@@H](C=O)NC(=O)[C@H](CC(C)C)NC(=O)[C@H](CC(C)C)NC(C)=O [ALLN, N-acetyl-leucyl-leucyl-norleucinal] (Ac-Leu-Leu-[Nle]-aldehyde)
- oligomeric form of HSF1 after EGS cross-linking (270-kDa cross-linked product): exists as a trimer
- steady-state levels of HSF1 in whole cell extracts (with or without cycloheximide): not significantly affected

— US20020111314A1, “Novel stimulation of gene expression and protein synthesis of heat shock protein 72/73 (Hsp 70)” (The Trustees of Columbia University, priority 1995, published 2002)
